Drawing on patent US20250304576A1 (Cancer Research Technology Limited, priority 2022, published 2025), this text covers Ki for 25 molecules.

One assay concerns the target T1, Recombinant IKKα (Homo sapiens, UniProt O15111).
T1 construct: purchased Millipore, Dundee, UK
T1 sequence (O15111 1-745): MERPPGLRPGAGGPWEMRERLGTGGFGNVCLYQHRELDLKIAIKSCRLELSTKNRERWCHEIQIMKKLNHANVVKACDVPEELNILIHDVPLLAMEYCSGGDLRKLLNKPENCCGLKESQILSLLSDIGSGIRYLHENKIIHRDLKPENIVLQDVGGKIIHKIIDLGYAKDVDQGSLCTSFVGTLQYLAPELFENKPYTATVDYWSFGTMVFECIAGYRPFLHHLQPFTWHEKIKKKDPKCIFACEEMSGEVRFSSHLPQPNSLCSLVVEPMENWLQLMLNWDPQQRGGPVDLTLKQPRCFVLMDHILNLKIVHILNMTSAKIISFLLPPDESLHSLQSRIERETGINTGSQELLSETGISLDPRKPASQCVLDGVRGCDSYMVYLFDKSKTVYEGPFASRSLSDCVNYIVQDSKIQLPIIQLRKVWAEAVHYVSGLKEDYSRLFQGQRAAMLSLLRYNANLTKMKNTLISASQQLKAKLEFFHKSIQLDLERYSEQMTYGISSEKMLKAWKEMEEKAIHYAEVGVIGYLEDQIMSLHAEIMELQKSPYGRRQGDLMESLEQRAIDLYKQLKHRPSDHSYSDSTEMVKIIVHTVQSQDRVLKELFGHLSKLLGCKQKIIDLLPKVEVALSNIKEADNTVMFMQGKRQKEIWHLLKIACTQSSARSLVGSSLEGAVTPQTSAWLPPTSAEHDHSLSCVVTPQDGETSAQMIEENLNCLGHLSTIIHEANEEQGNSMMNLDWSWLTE
Nature of the assay: DELFIA IKKα kinase assay (apparent Ki, Cheng-Prusoff). In kind it is biochemical. The method, then:
(§1) IKKα and IKKβ inhibitory activity was determined using three different assays: a dissociation enhanced ligand fluorescent immunoassay (DELFIA) based on the protocol of HTScan™ IKKβ Kinase Assay (Cell Signaling Technology, USA); an Adapta IKKα assay (performed by Life Technologies); a Z′-LYTE™ IKKβ assay (performed by Life Technologies).
(§2) Recombinant IKKα or IKKβ, 37 nM, (Millipore, Dundee, UK) was incubated with IηB-α (Ser32) (New England Biolabs, Hitchin, UK) biotinylated peptide substrate (0.375 μM) and 40 μM ATP in assay buffer (40 mM Tris-HCl (pH 7.5), 20 mM MgCl2, EDTA 1 mM, DTT 2 mM and BSA 0.01 mg/ml) in a V-well 96-well plate in the presence and absence of test compound. The assay plate was incubated for 60 minutes at 30° C. after which the kinase reaction was quenched by the addition of 50 mM EDTA, pH8. The resulting mixture was transferred to a streptavidin coated 96-well plate (Perkin Elmer, Beaconsfield, UK) and incubated for 1 hour at 30° C. to immobilise the substrate peptide. After three washes with wash buffer (0.01 M phosphate buffered saline (PBS), 0.05% Tween −20, pH 7.4) a primary antibody against the phosphorylated substrate (phospho-IηB-a) (Ser32/36) (5A5) Mouse mAb (New England Biolabs, Hitchin, UK) (1:1000 dilution with 1% bovine serum albumin (BSA) in wash buffer) was added and incubated at 37° C. for 2 h.
(§3) After a further three washes, a secondary europiated antibody (Eu-N1 labelled anti-mouse IgG, (Perkin Elmer, Beaconsfield, UK) diluted 1:500 in 1% BSA/wash buffer) was added and incubated at 30° C. for 30 minutes. After a further five washes, DELFIA enhancement solution—(Perkin Elmer, Beaconsfield UK) was added and allowed to incubate for 10 min at room temperature, protected from light, to facilitate the chemifluorescent detection. The relative fluorescence units (RFU) signal were measured on a Wallac Victor 1420 multilabel counter (Perkin Elmer, Beaconsfield, UK), in time-resolved fluorescence mode. The counter was set at an excitation wavelength of 340 nm with a 400 μs delay before detecting emitted light at 615 nm. The apparent Ki of the […] was calculated for each compound using the Cheng-Prusoff Equation.
(§4) The IKKα and IKKβ figures quoted in non-italicised form are from the DELFIA assay described above.

The next assay addresses T2, Recombinant IKKβ (Homo sapiens, UniProt O14920).
T2 construct: purchased Millipore, Dundee, UK
T2 sequence (O14920 1-756): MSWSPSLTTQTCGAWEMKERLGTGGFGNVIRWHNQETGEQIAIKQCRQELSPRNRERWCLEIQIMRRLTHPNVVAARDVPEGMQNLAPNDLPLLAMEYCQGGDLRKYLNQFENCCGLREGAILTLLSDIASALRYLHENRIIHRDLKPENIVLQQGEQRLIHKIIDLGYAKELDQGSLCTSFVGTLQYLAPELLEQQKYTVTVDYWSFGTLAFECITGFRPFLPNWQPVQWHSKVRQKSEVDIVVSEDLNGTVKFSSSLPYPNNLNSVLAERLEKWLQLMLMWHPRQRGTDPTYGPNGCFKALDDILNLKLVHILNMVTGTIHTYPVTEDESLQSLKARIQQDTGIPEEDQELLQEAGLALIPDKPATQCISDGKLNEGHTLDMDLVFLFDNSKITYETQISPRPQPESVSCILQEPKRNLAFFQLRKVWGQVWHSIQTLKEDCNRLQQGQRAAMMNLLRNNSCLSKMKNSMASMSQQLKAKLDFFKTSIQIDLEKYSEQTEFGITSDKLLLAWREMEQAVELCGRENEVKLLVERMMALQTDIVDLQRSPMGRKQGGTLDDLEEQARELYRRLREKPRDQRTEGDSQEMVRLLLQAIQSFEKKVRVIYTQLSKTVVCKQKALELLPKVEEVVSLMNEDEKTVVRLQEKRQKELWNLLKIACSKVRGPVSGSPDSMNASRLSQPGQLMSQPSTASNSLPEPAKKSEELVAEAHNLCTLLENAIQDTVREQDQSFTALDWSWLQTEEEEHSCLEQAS
Briefly: DELFIA IKKβ kinase assay (apparent Ki, Cheng-Prusoff). In kind it is biochemical. The note with it: non-italicised figure: DELFIA assay. The method, then:
as §1, §2, §3, §4

The mark [1] stands for this setting: non-italicised figure: DELFIA assay.
[2] abbreviates: DELFIA assay (first line of an example).

The structures appear in SMILES notation.

`Nc1cc(-c2cc(Cl)c3[nH]nc(N)c3c2)ccn1` [Example 1, 5-(2-Aminopyridin-4-yl)-7-chloro-1H-indazol-3-amine]: the Ki was 55 nM at Recombinant IKKα (setting [1]) and 880 nM at Recombinant IKKβ.
As for `Cc1cc(-c2ccnc(N)c2)cc2c(N)n[nH]c12` [Example 2, 5-(2-Aminopyridin-4-yl)-7-methyl-1H-indazol-3-amine], the Ki at Recombinant IKKα (setting [1]) was 72 nM; at Recombinant IKKβ it was 461 nM.
In the case of `Nc1cc(-c2cc(C(F)(F)F)c3[nH]nc(N)c3c2)ccn1` [Example 3, 5-(2-Aminopyridin-4-yl)-7-(trifluoromethyl)-1H-indazol-3-amine], the Ki on Recombinant IKKα (setting [1]) is 38 nM; on Recombinant IKKβ, 194 nM.
For `Nc1n[nH]c2c(Cl)cc(-c3ccnc4[nH]ccc34)cc12` [Example 4, 7-Chloro-5-(1H-pyrrolo[2,3-b]pyridin-4-yl)-1H-indazol-3-amine], in that order: 4 nM and 93 nM.
With `Nc1n[nH]c2c(Br)cc(-c3ccnc4[nH]ccc34)cc12` [Example 5, 7-Bromo-5-(1H-pyrrolo[2,3-b]pyridin-4-yl)-1H-indazol-3-amine], the Ki amounted to 6 nM on Recombinant IKKα (setting [1]) and 26 nM on Recombinant IKKβ.
As to `C#Cc1cc(-c2ccnc3[nH]ccc23)cc2c(N)n[nH]c12` [Example 6, 7-Ethynyl-5-(1H-pyrrolo[2,3-b]pyridin-4-yl)-1H-indazol-3-amine], the Ki was 26 nM on Recombinant IKKα (setting [1]) and 137 nM on Recombinant IKKβ.
On to `Nc1n[nH]c2c(-c3ccccc3)cc(-c3ccnc4[nH]ccc34)cc12` [Example 7, 7-Phenyl-5-(1H-pyrrolo[2,3-b]pyridin-4-yl)-1H-indazol-3-amine], for which the Ki on Recombinant IKKα (setting [1]) was found to be 35 nM; at Recombinant IKKβ, 1260 nM.
For `Cc1cc2c(-c3ccc4[nH]nc(N)c4c3)ccnc2[nH]1` [Example 8, 5-(2-Methyl-1H-pyrrolo[2,3-b]pyridin-4-yl)-1H-indazol-3-amine] the same measures were 2 nM and 33 nM.
For the molecule `CC(C)(C)c1cc2c(-c3ccc4[nH]nc(N)c4c3)ccnc2[nH]1` [Example 9, 2-(Tert-butyl)-4-(3-amino-1H-indazol-5-yl)-7-azaindole], the figures for the Ki on Recombinant IKKα (setting [1]) and on Recombinant IKKβ were 19 nM and 109 nM, respectively.
Turning to `Nc1n[nH]c2ccc(-c3ccnc4[nH]c(C(=O)O)cc34)cc12` [Example 10, 4-(3-Amino-1H-indazol-5-yl)-1H-pyrrolo[2,3-b]pyridine-2-carboxylic acid], the Ki on Recombinant IKKα (setting [1]) amounted to 5 nM; on Recombinant IKKβ it was 335 nM.
For `Nc1n[nH]c2c(Br)cc(-c3ncnc4[nH]ccc34)cc12` [Example 11, 7-Bromo-5-(7H-pyrrolo[2,3-d]pyrimidin-4-yl)-1H-indazol-3-amine] the same measures were 39 nM and 258 nM.
For `CCNc1cc(-c2ccc3[nH]nc(N)c3c2)ccn1` [Example 12, 5-[2-(Ethylamino)pyridin-4-yl]-1H-indazol-3-amine], in that order: 8 nM and 38 nM.
As for `CCCNc1cc(-c2ccc3[nH]nc(N)c3c2)ccn1` [Example 13, 5-(2-(Propylamino)pyridin-4-yl)-1H-indazol-3-amine], the figures for the Ki at Recombinant IKKα (setting [1]) and at Recombinant IKKβ were 49 nM and 251 nM, respectively.
For `CC(C)Nc1cc(-c2ccc3[nH]nc(N)c3c2)ccn1` [Example 14, 5-(2-(Isopropylamino)pyridin-4-yl)-1H-indazol-3-amine], in that order: 76 nM and 587 nM.
As for `Nc1nccc(-c2ccc3[nH]nc(N)c3c2)c1CCCCO` [Example 101, 4-(2-Amino-4-(3-amino-1H-indazol-5-yl)pyridin-3-yl)butan-1-ol], at Recombinant IKKα (setting [1]), the Ki is 5580 nM.
Same read-out and setting: as for `Nc1nccc(-c2ccc3[nH]nc(N)c3c2)c1CCC1(O)CCCCC1` [Example 102, 1-(2-(2-Amino-4-(3-amino-1H-indazol-5-yl)pyridin-3-yl)ethyl)cyclohexan-1-ol], the figure is 8980 nM; as for `Nc1nccc(-c2ccc3[nH]nc(N)c3c2)c1CCCCCO` [Example 103, 5-(2-Amino-4-(3-amino-1H-indazol-5-yl)pyridin-3-yl)pentan-1-ol], 24800 nM.
As to `CC(C)(C)C#Cc1cc(-c2ccnc(N)n2)cc2c(N)n[nH]c12` [Example 143, 5-(2-Aminopyrimidin-4-yl)-7-(3,3-dimethylbut-1-yn-1-yl)-1H-indazol-3-amine], at Recombinant IKKα (setting [1]), the Ki was determined as 517 nM.
Same read-out and setting: with `CC(C)(C)C#Cc1cc(-c2cc(N)nc(F)c2)cc2c(N)n[nH]c12` [Example 150, 5-(2-Amino-6-fluoropyridin-4-yl)-7-(3,3-dimethylbut-1-yn-1-yl)-1H-indazol-3-amine] the figure was 573 nM; with `CC(C)(C)C#Cc1cc(-c2cc(N)nc(N)c2)cc2c(N)n[nH]c12` [Example 151, 4-(3-Amino-7-(3,3-dimethylbut-1-yn-1-yl)-1H-indazol-5-yl)pyridine-2,6-diamine], 931 nM.
For `CC1(C#Cc2cc(-c3ccnc(NC4CC4)c3)cc3c(N)n[nH]c23)COC1` [Example 176, 5-(2-(Cyclopropylamino)pyridine-4-yl)-7-((3-methyloxetan-3-yl)ethynyl)-1H-indazol-3-amine], the Ki at Recombinant IKKα (setting [1]) turned out to be 19 nM.
In the case of `CC(=O)Nc1cc(-c2cc(C#Cc3ccccc3)c3[nH]nc(N)c3c2)ccn1` [Example 178, N-(4-(3-Amino-7-(phenylethynyl)-1H-indazol-5-yl)pyridin-2-yl)acetamide], the Ki at Recombinant IKKα (setting [1]) is 22 nM.
Consider `CC(C)(C)C#Cc1cc(-c2ccnc(NS(C)(=O)=O)c2)cc2c(N)n[nH]c12` [Example 193, N-(4-(3-Amino-7-(3,3-dimethylbut-1-yn-1-yl)-1H-indazol-5-yl)pyridine-2-yl)methanesulfonamide], for which the Ki at Recombinant IKKα (setting [2]) stood at 5520 nM.
For `CC(=O)Nc1cc(-c2cc(C#CC(C)(C)C)c3[nH]nc(N)c3c2)cc(F)n1` [Example 195, N-(4-(3-amino-7-(3,3-dimethylbut-1-yn-1-yl)-1H-indazol-5-yl)-6-fluoropyridin-2-yl)acetamide], the Ki on Recombinant IKKα (setting [2]) worked out at 21800 nM.
Consider `CC(C)(C)C#Cc1cc(-c2ccnc3[nH]c(CN4CCOCC4)cc23)cc2c(N)n[nH]c12` [Example 279, 7-(3,3-Dimethylbut-1-yn-1-yl)-5-(2-(morpholinomethyl)-1H-pyrrolo[2,3-b]pyridin-4-yl)-1H-indazol-3-amine], for which the Ki on Recombinant IKKα (setting [2]) worked out at 13 nM.
